Results published in the NIST ThermoML archive (doi:10.1016/j.jct.2015.12.023).

Experiment: mn = molality of the nth substance listed, in mol/kg
Settings: 100 kPa, Liquid; for speed of sound: Frequency=3 MHz, Sing-around technique in a fixed-path interferometer; for mass density: Vibrating tube method

CCCC[N+](CCCC)(CCCC)CCCC.[I-] [tetrabutylammonium iodide] + O
Settings	mass density, 288.15 K [kg/m3]	mass density, 293.15 K [kg/m3]	mass density, 298.15 K [kg/m3]	mass density, 303.15 K [kg/m3]	mass density, 308.15 K [kg/m3]	speed of sound, 288.15 K [m/s]	speed of sound, 293.15 K [m/s]	speed of sound, 298.15 K [m/s]	speed of sound, 303.15 K [m/s]	speed of sound, 308.15 K [m/s]
m1 = 0.01	1001.07	1000.16	998.97	997.53	995.95	1468.9	1484.9	1498.9	1511.1	1521.2
m1 = 0.02	1001.64	1000.72	999.53	998.07	996.49	1471.3	1487.1	1500.9	1512.9	1522.9
m1 = 0.03	1002.22	1001.29	1000.09	998.61	997.02	1473.6	1489.1	1502.8	1514.5	1524.4
m1 = 0.04	1002.83	1001.88	1000.67	999.19	997.58	1475.8	1491.3	1504.7	1516.3	1526
